Data taken from PMC11956005 (Journal of Medicinal Chemistry, 2025).
Where no end group is shown, it is not given here. [ ]: non-standard residue; d: D form. The star is where a group is joined. X1 = CCCCCCCCCCCCCCCC(=O)N[C@@H](CCC(=O)NCCCC[C@H](NC(=O)CCOCCOCCOCCOCCNC(=O)CNC(=O)CCN1C(=O)CC(*)C1=O)C(=O)NCCOCCOCCOCCOCCC(=O)N[C@@H](CCCCNC(=O)CC[C@H](NC(=O)CCCCCCCCCCCCCCCCC(=O)O)C(=O)O)C(=O)OC)C(=O)O; Aib = CC(C)(N)C(=O)O

Key:
[1] = native GLP-1; cited from earlier work
[2] = tested on: db/db mice; assay: Blood glucose control after a single subcutaneous dose in db/db mice; format: in vivo, mouse; details: single s.c. dose, 72 h postinjection

Compound | intravenous half-life [1] | blood sugar reduction (Δglucose from baseline) [2]
CC[C@H](C)[C@H](NC(=O)[C@H](Cc1ccccc1)NC(=O)[C@H](CCC(=O)O)NC(=O)[C@H](CCCCN)NC(=O)[C@H](C)NC(=O)[C@H](C)NC(=O)[C@H](CCC(N)=O)NC(=O)CNC(=O)[C@H](CCC(=O)O)NC(=O)[C@H](CC(C)C)NC(=O)[C@H](Cc1ccc(O)cc1)NC(=O)[C@H](CO)NC(=O)[C@H](CO)NC(=O)[C@@H](NC(=O)[C@H](CC(=O)O)NC(=O)[C@H](CO)NC(=O)[C@@H](NC(=O)[C@H](Cc1ccccc1)NC(=O)[C@@H](NC(=O)CNC(=O)[C@H](CCC(=O)O)NC(=O)[C@H](C)NC(=O)[C@@H](N)Cc1c[nH]cn1)[C@@H](C)O)[C@@H](C)O)C(C)C)C(=O)N[C@@H](C)C(=O)N[C@@H](Cc1c[nH]c2ccccc12)C(=O)N[C@@H](CC(C)C)C(=O)N[C@H](C(=O)N[C@@H](CCCCN)C(=O)NCC(=O)N[C@@H](CCCN=C(N)N)C(=O)NCC(=O)O)C(C)C [GLP-1, glucagon-like peptide-1] | 1.5 to 2 min | –
H[Aib]EGTFTSDVSSYLEGQAAKEFIAWLVRGRGGGGSGGGGSGGGGSGC(X1) [TE-8131] | – | -8.2 ± 1.4 mmol/L
